Results on 9 compounds are retold here after patent US20240158446A1, “CYCLIC COMPOUND HAVING SELECTIVE INHIBITORY ACTION ON KRAS OVER HRAS AND NRAS” (CHUGAI SEIYAKU KABUSHIKI KAISHA, priority 2021, published 2024).

Like-named read-outs stand apart in the source and are kept apart here. Where a SMILES comes first, the peptide text is derived from it. Bridges are numbered along the chain shown (N, C = ends). [ ]: non-standard residue; d: D form. The star is where a group is joined. hPhe(3-Cl-4-CF3) = N[C@@H](CCc1ccc(C(F)(F)F)c(Cl)c1)C(=O)O; NPrPhe(4-CF3) = CCCN[C@@H](Cc1ccc(C(F)(F)F)cc1)C(=O)O; NMeGly(cPent) = CN[C@H](C(=O)O)C1CCCC1; Pro(4,4-F2) = O=C(O)[C@@H]1CC(F)(F)CN1; Hyp = O=C(O)[C@@H]1C[C@@H](O)CN1; NMeD = CN[C@@H](CC(=O)O)C(=O)O; NMeL = CN[C@@H](CC(C)C)C(=O)O; Morpholide = C1CN(*)CCO1; NMeA = CN[C@@H](C)C(=O)O; Ac5c = NC1(C(=O)O)CCCC1; Aze = O=C(O)[C@@H]1CCN1; Ac4c = NC1(C(=O)O)CCC1; NEtG = CCNCC(=O)O; Sar = CNCC(=O)O

The target of assay [1] is GDP-bound NRAS wild-type protein (Homo sapiens, UniProt P01111). As to the kind of experiment: Binding to NRAS by surface plasmon resonance (SPR), Single Cycle Kinetics. As to conditions: SPR, GDP-bound NRAS wild-type protein vs GDP-bound KRAS wild-type protein.
The target in assay [2] is GDP-bound HRAS wild-type protein (Homo sapiens, UniProt P01112). The assay can be described thus: Binding to HRAS by surface plasmon resonance (SPR), Single Cycle Kinetics. The note with it: SPR, GDP-bound HRAS wild-type protein vs GDP-bound KRAS wild-type protein.
Assay [3] addresses GDP-bound KRAS wild-type protein (Homo sapiens, UniProt P01116). As to the kind of experiment: Binding to KRAS by surface plasmon resonance (SPR), Single Cycle Kinetics. As to conditions: GDP-bound KRAS wild-type protein, read-out: KRAS KD.
Setting [4] is: SPR Single Cycle Kinetics, 1:1 binding model.

Chain of GDP-bound NRAS wild-type protein (P01111 whole entry): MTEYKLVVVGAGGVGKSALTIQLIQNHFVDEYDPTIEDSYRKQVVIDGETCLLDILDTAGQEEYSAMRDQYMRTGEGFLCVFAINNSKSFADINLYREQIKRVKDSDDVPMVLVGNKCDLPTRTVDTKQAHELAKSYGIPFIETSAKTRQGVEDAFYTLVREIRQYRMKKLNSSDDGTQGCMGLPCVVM
Chain of GDP-bound HRAS wild-type protein (P01112 whole entry): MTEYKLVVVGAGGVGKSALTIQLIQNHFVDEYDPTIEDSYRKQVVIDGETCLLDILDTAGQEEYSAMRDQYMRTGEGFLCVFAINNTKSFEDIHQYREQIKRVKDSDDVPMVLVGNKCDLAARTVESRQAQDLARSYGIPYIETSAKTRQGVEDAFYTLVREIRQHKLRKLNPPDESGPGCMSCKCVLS
Chain of GDP-bound KRAS wild-type protein (P01116 whole entry): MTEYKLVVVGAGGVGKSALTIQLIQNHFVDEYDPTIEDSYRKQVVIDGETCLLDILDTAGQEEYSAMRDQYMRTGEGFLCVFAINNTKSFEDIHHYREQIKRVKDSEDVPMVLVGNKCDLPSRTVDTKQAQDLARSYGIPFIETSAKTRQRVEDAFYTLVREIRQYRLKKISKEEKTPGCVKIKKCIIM

By Kd is commonly meant a measure of binding affinity in units of concentration. `CCCN1C(=O)[C@@H]2CCN2C(=O)[C@H](C)N(C)C(=O)[C@H]([C@@H](C)CC)NC(=O)[C@H](CC(C)C)N(C)C(=O)C[C@@H](C(=O)N2CCOCC2)NC(=O)[C@H](C2CCCC2)N(C)C(=O)C2(CCC2)NC(=O)[C@@H]2CC(F)(F)CN2C(=O)[C@H](CCc2ccc(C(F)(F)F)c(Cl)c2)NC(=O)CN(C)C(=O)[C@@H]1Cc1ccc(C(F)(F)F)cc1` [PP0346] ([NMeL]I[NMeA][Aze][NPrPhe(4-CF3)][Sar][hPhe(3-Cl-4-CF3)][Pro(4,4-F2)][Ac4c][NMeGly(cPent)]D-Morpholide; lactam N-11): in assay [1], the “NRAS/KRAS (ratio of KD value for NRAS to KD value for KRAS)” value was “C (A compound having a KD ratio of 0.1 or more and less than 3 is denoted as C)”. The “HRAS/KRAS (ratio of KD value for HRAS to KD value for KRAS)” value in assay [2] is “B (a compound having 3 or more and less than 10 is denoted as B)”. Further, the Kd in assay [3] (setting [4]) is 1.2 nM.

Regarding `CCO[C@@H]1C[C@H]2C(=O)NC3(CCC3)C(=O)N(C)[C@@H](C3CCCC3)C(=O)N(C)[C@H](C(=O)N(C)C)CC(=O)N(C)[C@@H](CC(C)C)C(=O)N[C@@H]([C@@H](C)CC)C(=O)N(C)CC(=O)N(C)[C@H]3C/C=C\CCN(C3=O)[C@@H](Cc3ccc(F)cc3)C(=O)N(C)CC(=O)N[C@@H](CCc3cc(F)c(C(F)(F)F)c(F)c3)C(=O)N2C1` [PP1488, (2S,8S,12R,14S,20S,23S,27S,30S,36S,38Z)-20-cyclopentyl-8-[2-[3,5-difluoro-4-(trifluoromethyl)phenyl]ethyl]-12-ethoxy-2-[(4-fluorophenyl)methyl]-27-isobutyl-N,N,4,19,22,26,32,35-octamethyl-30-[(1S)-1-methylpropyl]-3,6,9,15,18,21,25,28,31,34,42-undecaoxo-spiro[1,4,7,10,16,19,22,26,29,32,35-undecazatricyclo[34.5.1.0^10,14]dotetracont-38-ene-17,1′-cyclobutane]-23-carboxamide], the “NRAS/KRAS (ratio of KD value for NRAS to KD value for KRAS)” value in assay [1] (KD ratio class) was “A (a compound having 10 or more and less than 20 is denoted as A)”. In addition, the “HRAS/KRAS (ratio of KD value for HRAS to KD value for KRAS)” value in assay [2] (KD ratio class) is “B (a compound having 3 or more and less than 10 is denoted as B)”. Further, the Kd in assay [3] (SPR, Single Cycle Kinetics, 1:1 binding model) stood at 0.081 nM.

As for `CCO[C@@H]1C[C@H]2C(=O)NC3(CCC3)C(=O)N(C)[C@@H](C(CC)CC)C(=O)N(C)[C@H](C(=O)N3CCCC3)CC(=O)N(C)[C@H]3CCC/C=C/c4ccc(cc4)C[C@@H](C(=O)N(C)CC(=O)N[C@@H](CCc4ccc(Cl)c(Cl)c4)C(=O)N2C1)N1CC/C=C\C[C@@H](C1=O)N(C)C(=O)CN(C1CC1)C(=O)[C@H]([C@@H](C)CC)NC3=O` [PP3040], the “NRAS/KRAS (ratio of KD value for NRAS to KD value for KRAS)” value in assay [1] is on record as “AA (a compound having 20 or more is denoted as AA)”. In addition, the “HRAS/KRAS (ratio of KD value for HRAS to KD value for KRAS)” value in assay [2] was “A (a compound having 10 or more and less than 20 is denoted as A)”. For the same compound, the Kd in assay [3] (SPR, Single Cycle Kinetics) is 0.29 nM.

`CCCN1C(=O)CN(C)C(=O)CN(CC)C(=O)[C@H]([C@@H](C)CC)NC(=O)[C@H](CC(C)C)N(C)C(=O)C[C@@H](C(=O)N(C)C)NC(=O)[C@H](C2CCCC2)N(C)C(=O)C2(CCCC2)NC(=O)[C@@H]2C[C@@H](OCC)CN2C(=O)[C@H](CCc2ccc(C(F)(F)F)c(Cl)c2)NC(=O)CN(C)C(=O)[C@@H]1Cc1ccc(C(F)(F)F)cc1` [PP0371] ([NMeL]I[NEtG][Sar][NPrPhe(4-CF3)][Sar][hPhe(3-Cl-4-CF3)][Hyp](Et)[Ac5c][NMeGly(cPent)]D-NMe2; lactam N-11): in assay [1], the “NRAS/KRAS (ratio of KD value for NRAS to KD value for KRAS)” value was “B (a compound having 3 or more and less than 10 is denoted as B)”. Further, the “HRAS/KRAS (ratio of KD value for HRAS to KD value for KRAS)” value in assay [2] is “C (A compound having a KD ratio of 0.1 or more and less than 3 is denoted as C)”. Further, in assay [3] (setting [4]), the Kd was determined as 0.48 nM.

Regarding `CC[C@H](C)[C@@H]1NC(=O)[C@H](CC(C)C)N(C)C(=O)C[C@@H](C(=O)N2CCOCC2)N(C)C(=O)[C@H](C2CCCC2)N(C)C(=O)C2(CCCC2)NC(=O)[C@@H]2CC(=O)CN2C(=O)[C@H](CCc2cc(F)c(C(F)(F)F)c(F)c2)NC(=O)CN(C)C(=O)[C@H](Cc2ccc(C(F)(F)F)cc2)N2CCCCC[C@@H](C2=O)N(C)C(=O)CN(C)C1=O` [PP0493], the “NRAS/KRAS (ratio of KD value with respect to NRAS to KD value with respect to KRAS)” value in assay [1] is “B (a compound having 3 or more and less than 10 is denoted as B)”. Moreover, the “HRAS/KRAS (ratio of KD value with respect to HRAS to KD value with respect to KRAS)” value in assay [2] was “B (a compound having 3 or more and less than 10 is denoted as B)”. Moreover, in assay [3] (setting [4]), the Kd was found to be 2 nM.

For the compound `CCO[C@@H]1C[C@H]2C(=O)NC3(CCCC3)C(=O)N(C)[C@@H](C3CCCC3)C(=O)N(C)[C@H](C(=O)N3CCOCC3)CC(=O)N(C)[C@@H](CC(C)C)C(=O)N[C@@H]([C@@H](C)CC)C(=O)N(C)CC(=O)N(C)[C@H]3CCCCN(C3=O)[C@@H](Cc3ccc(C(F)(F)F)cc3)C(=O)N(C)CC(=O)N[C@@H](CCc3cc(F)c(C(F)(F)F)c(F)c3)C(=O)N2C1` [PP0554], in assay [1], the “NRAS/KRAS (ratio of KD value with respect to NRAS to KD value with respect to KRAS)” value was “B (a compound having 3 or more and less than 10 is denoted as B)”. The “HRAS/KRAS (ratio of KD value with respect to HRAS to KD value with respect to KRAS)” value in assay [2] was “B (a compound having 3 or more and less than 10 is denoted as B)”. Besides, in assay [3] (setting [4]), the Kd was 0.036 nM.

Turning to `CCO[C@@H]1C[C@H]2C(=O)NC3(CCC3)C(=O)N(C)[C@@H](C3CCCC3)C(=O)N(C)[C@H](C(=O)N3CCOCC3)CC(=O)N(C)[C@@H](Cc3ccc(F)c(F)c3)C(=O)N[C@@H]([C@@H](C)CC)C(=O)N(C)CC(=O)N(C)[C@H]3CCCCCN(C3=O)[C@@H](Cc3ccc(C(F)(F)F)cc3)C(=O)N(C)CC(=O)N[C@@H](CCc3cc(F)c(C(F)(F)F)c(F)c3)C(=O)N2C1` [PP0928], the “NRAS/KRAS (ratio of KD value for NRAS to KD value for KRAS)” value in assay [1] is “A (a compound having 10 or more and less than 20 is denoted as A)”. Also, the “HRAS/KRAS (ratio of KD value for HRAS to KD value for KRAS)” value in assay [2] is “B (a compound having 3 or more and less than 10 is denoted as B)”. For the same compound, the Kd in assay [3] (SPR, Single Cycle Kinetics) came out at 1 nM.

For `CCCN1C(=O)CN(C)C(=O)CN(CC)C(=O)[C@H]([C@@H](C)CC)NC(=O)[C@H](CC(C)C)N(C)C(=O)C[C@@H](C(=O)N2CCOCC2)N(C)C(=O)[C@H](C2CCCC2)N(C)C(=O)C2(CCCC2)NC(=O)[C@@H]2CC(F)(F)CN2C(=O)[C@H](CCc2ccc(C(F)(F)F)c(Cl)c2)NC(=O)CN(C)C(=O)[C@@H]1Cc1ccc(C(F)(F)F)cc1` [PP0399] ([NMeL]I[NEtG][Sar][NPrPhe(4-CF3)][Sar][hPhe(3-Cl-4-CF3)][Pro(4,4-F2)][Ac5c][NMeGly(cPent)][NMeD]-Morpholide; lactam N-11), in assay [1], the “NRAS/KRAS (ratio of KD value for NRAS to KD value for KRAS)” value is “B (a compound having 3 or more and less than 10 is denoted as B)”. In assay [2], the “HRAS/KRAS (ratio of KD value for HRAS to KD value for KRAS)” value was “C (A compound having a KD ratio of 0.1 or more and less than 3 is denoted as C)”. Moreover, the Kd in assay [3] (setting [4]) was 0.33 nM.

For the compound `CCO[C@@H]1C[C@H]2C(=O)NC3(CCCC3)C(=O)N(C)[C@@H](C3CCCC3)C(=O)N(C)[C@H](C(=O)N3CCOCC3)CC(=O)N(C)[C@@H](CC)C(=O)N[C@@H]([C@@H](C)CC)C(=O)N(C)CC(=O)N(C)[C@H]3C[C@@H](C)CCN(C3=O)[C@@H](Cc3ccc(C(F)(F)F)cc3)C(=O)N(C)CC(=O)N[C@@H](CCc3cc(F)c(C(F)(F)F)c(F)c3)C(=O)N2C1` [PP1029], in assay [1], the “NRAS/KRAS (ratio of KD value for NRAS to KD value for KRAS)” value was “C (A compound having a KD ratio of 0.1 or more and less than 3 is denoted as C)”. Besides, in assay [2], the “HRAS/KRAS (ratio of KD value for HRAS to KD value for KRAS)” value was “B (a compound having 3 or more and less than 10 is denoted as B)”. For the same compound, the Kd in assay [3] (SPR, Single Cycle Kinetics) is 0.078 nM.
